Test results reported in ChEMBL document CHEMBL1201862, “PubChem BioAssay data set” (2004).
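Growth conditions: 96-well plates. Treatment: test compound, 48 hours, 5 concentrations. Analysis: linear interpolation between bracketing concentrations; unreached endpoints set to highest concentration. GI50: concentration for 50% inhibition of growth.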 Activity calls are given as the source filed them. Rule as the data show it: active = GI50 up to about 1.1 µM and inactive = higher.

How the values were obtained:
Test in all cases: NCI-60 cell line screen, 48 h
TK-10 = test system: TK-10
LOX IMVI = test system: LOX IMVI
MOLT-4 = test system: MOLT-4
UACC-257 = test system: UACC-257
Malme-3M = test system: Malme-3M
MDA-MB-231 = test system: MDA-MB-231
OVCAR-8 = test system: OVCAR-8
SNB-19 = test system: SNB-19
HT-29 = test system: HT-29
IGROV-1 = test system: IGROV-1
HOP-92 = test system: HOP-92
NCI-H460 = test system: NCI-H460
SK-MEL-5 = test system: SK-MEL-5
CAKI-1 = test system: CAKI-1
NCI-H522 = test system: NCI-H522
ACHN = test system: ACHN
PC-3 = test system: PC-3
HL-60 = test system: HL-60
SN12C = test system: SN12C
A498 = test system: A498
SF-295 = test system: SF-295
MCF7 = test system: MCF7
SK-OV-3 = test system: SK-OV-3
K562 = test system: K562
SF-539 = test system: SF-539
NCI-H226 = test system: NCI-H226
CCRF-CEM = test system: CCRF-CEM
HOP-62 = test system: HOP-62
M14 = test system: M14
UO-31 = test system: UO-31
HCT-15 = test system: HCT-15
NCI-H23 = test system: NCI-H23
SK-MEL-28 = test system: SK-MEL-28
EKVX = test system: EKVX
OVCAR-4 = test system: OVCAR-4
SW-620 = test system: SW-620
MDA-N = test system: MDA-N
RPMI-8226 = test system: RPMI-8226
786-0 = test system: 786-0
T47D = test system: T47D
COLO 205 = test system: COLO 205
SK-MEL-2 = test system: SK-MEL-2
MDA-MB-435 = test system: MDA-MB-435
NCI/ADR-RES = test system: NCI/ADR-RES
BT-549 = test system: BT-549
HCT-116 = test system: HCT-116
KM12 = test system: KM12
SNB-75 = test system: SNB-75
OVCAR-5 = test system: OVCAR-5
Hs-578T = test system: Hs-578T
DU-145 = test system: DU-145
HCC 2998 = test system: HCC 2998
A549 = test system: A549
SR = test system: SR
OVCAR-3 = test system: OVCAR-3
RXF 393 = test system: RXF 393
SF-268 = test system: SF-268
UACC-62 = test system: UACC-62
U-251 = test system: U-251

Measured: GI50

C=C1C(=O)O[C@H]2[C@H]3O[C@@H](C[C@@H]12)[C@@]1(C)CC[C@H](O1)C(C)=CCC[C@H]3C
active: HL-60 0.278 µM | K562 1.08 µM | CCRF-CEM 0.324 µM | RPMI-8226 0.513 µM | BT-549 0.581 µM | SR 0.065 µM
inactive: TK-10 1.58 µM | LOX IMVI 1.52 µM | MOLT-4 1.26 µM | UACC-257 1.76 µM | Malme-3M 1.75 µM | MDA-MB-231 1.62 µM | OVCAR-8 1.44 µM | SNB-19 6.35 µM | HT-29 1.34 µM | IGROV-1 1.53 µM | HOP-92 1.55 µM | NCI-H460 2.07 µM | SK-MEL-5 1.49 µM | CAKI-1 1.28 µM | NCI-H522 1.77 µM | ACHN 1.55 µM | PC-3 1.49 µM | SN12C 1.65 µM | A498 1.63 µM | SF-295 5.16 µM | MCF7 1.43 µM | SK-OV-3 4.58 µM | SF-539 1.55 µM | NCI-H226 2.46 µM | HOP-62 6.27 µM | M14 1.65 µM | UO-31 1.46 µM | NCI-H23 1.53 µM | SK-MEL-28 1.82 µM | EKVX 1.52 µM | OVCAR-4 1.59 µM | SW-620 1.26 µM | MDA-N 1.53 µM | 786-0 1.31 µM | T47D 2.11 µM | COLO 205 1.81 µM | SK-MEL-2 1.93 µM | MDA-MB-435 1.46 µM | NCI/ADR-RES 1.72 µM | HCT-116 1.45 µM | KM12 1.8 µM | SNB-75 1.73 µM | OVCAR-5 3.09 µM | Hs-578T 2.65 µM | DU-145 1.49 µM | HCC 2998 1.75 µM | A549 2.25 µM | OVCAR-3 1.37 µM | RXF 393 1.48 µM | SF-268 1.45 µM | UACC-62 1.53 µM | U-251 1.61 µM
1.49 µM: HCT-15

Nc1nc(Cl)c(N)c(NCC2(CO)CCC2)n1
inactive: TK-10 > 100 µM | LOX IMVI > 100 µM | MOLT-4 > 100 µM | UACC-257 > 100 µM | Malme-3M > 100 µM | MDA-MB-231 > 100 µM | OVCAR-8 > 100 µM | SNB-19 > 100 µM | HT-29 > 100 µM | IGROV-1 > 100 µM | HOP-92 76 µM | NCI-H460 > 100 µM | SK-MEL-5 75.9 µM | CAKI-1 > 100 µM | NCI-H522 69.7 µM | ACHN > 100 µM | PC-3 > 100 µM | HL-60 > 100 µM | SN12C > 100 µM | A498 > 100 µM | SF-295 > 100 µM | MCF7 > 100 µM | SK-OV-3 > 100 µM | K562 > 100 µM | SF-539 > 100 µM | NCI-H226 > 100 µM | CCRF-CEM > 100 µM | HOP-62 > 100 µM | M14 > 100 µM | UO-31 > 100 µM | NCI-H23 94.2 µM | SK-MEL-28 > 100 µM | EKVX > 100 µM | OVCAR-4 > 100 µM | SW-620 > 100 µM | MDA-N > 100 µM | RPMI-8226 > 100 µM | 786-0 > 100 µM | T47D 91.8 µM | COLO 205 > 100 µM | SK-MEL-2 > 100 µM | MDA-MB-435 > 100 µM | NCI/ADR-RES > 100 µM | BT-549 > 100 µM | HCT-116 > 100 µM | KM12 > 100 µM | SNB-75 > 100 µM | OVCAR-5 > 100 µM | Hs-578T > 100 µM | DU-145 > 100 µM | HCC 2998 > 100 µM | A549 > 100 µM | SR > 100 µM | OVCAR-3 > 100 µM | RXF 393 > 100 µM | SF-268 > 100 µM | UACC-62 > 100 µM | U-251 > 100 µM
> 100 µM: HCT-15

CSc1nc(SC)c2c(C)c(Br)[nH]c2n1
> 100 µM: HCT-15
inactive: TK-10 > 100 µM | LOX IMVI > 100 µM | MOLT-4 > 100 µM | Malme-3M > 100 µM | MDA-MB-231 > 100 µM | OVCAR-8 > 100 µM | SNB-19 > 100 µM | HT-29 > 100 µM | IGROV-1 > 100 µM | HOP-92 > 100 µM | NCI-H460 > 100 µM | SK-MEL-5 > 100 µM | CAKI-1 > 100 µM | NCI-H522 > 100 µM | ACHN > 100 µM | PC-3 > 100 µM | HL-60 > 100 µM | SN12C > 100 µM | A498 > 100 µM | SF-295 > 100 µM | MCF7 30.9 µM | SK-OV-3 > 100 µM | SF-539 54.6 µM | NCI-H226 > 100 µM | CCRF-CEM > 100 µM | HOP-62 > 100 µM | M14 > 100 µM | UO-31 > 100 µM | NCI-H23 > 100 µM | SK-MEL-28 > 100 µM | EKVX 70.5 µM | OVCAR-4 > 100 µM | SW-620 > 100 µM | MDA-N > 100 µM | RPMI-8226 > 100 µM | 786-0 > 100 µM | T47D > 100 µM | COLO 205 > 100 µM | SK-MEL-2 > 100 µM | MDA-MB-435 > 100 µM | NCI/ADR-RES > 100 µM | BT-549 > 100 µM | HCT-116 > 100 µM | KM12 > 100 µM | SNB-75 > 100 µM | OVCAR-5 > 100 µM | Hs-578T > 100 µM | DU-145 > 100 µM | HCC 2998 > 100 µM | A549 > 100 µM | SR > 100 µM | OVCAR-3 > 100 µM | RXF 393 > 100 µM | SF-268 > 100 µM | UACC-62 > 100 µM | U-251 > 100 µM

Nc1ccc(-c2nc3cc(F)ccc3s2)cc1Br
inactive: LOX IMVI > 51.2 µM | MOLT-4 > 100 µM | UACC-257 > 100 µM | Malme-3M 33 µM | MDA-MB-231 8.95 µM | OVCAR-8 28.7 µM | SNB-19 53.3 µM | HOP-92 29.1 µM | SK-MEL-5 33.1 µM | CAKI-1 3.99 µM | NCI-H522 > 42.8 µM | PC-3 26.6 µM | HL-60 4.71 µM | SN12C > 73.5 µM | A498 14.7 µM | SF-295 23.5 µM | SK-OV-3 > 59 µM | SF-539 > 41.5 µM | CCRF-CEM > 100 µM | HOP-62 12.7 µM | M14 > 95.5 µM | UO-31 37.6 µM | SK-MEL-28 > 100 µM | EKVX 2.71 µM | OVCAR-4 23.8 µM | SW-620 > 93.8 µM | MDA-N > 100 µM | RPMI-8226 > 78.2 µM | 786-0 59 µM | SK-MEL-2 > 89.5 µM | MDA-MB-435 > 100 µM | NCI/ADR-RES > 56.8 µM | BT-549 7.69 µM | KM12 10.4 µM | SNB-75 18.3 µM | Hs-578T 36.7 µM | DU-145 55.7 µM | A549 8.97 µM | RXF 393 25.5 µM | SF-268 42 µM | UACC-62 > 84.1 µM | U-251 18.1 µM
0.144 µM: HCT-15
active: TK-10 0.0306 µM | HT-29 0.368 µM | IGROV-1 < 0.01 µM | NCI-H460 0.0458 µM | ACHN 0.621 µM | MCF7 < 0.0111 µM | NCI-H226 0.0504 µM | T47D 0.038 µM | COLO 205 0.377 µM | HCT-116 0.0552 µM | OVCAR-5 0.0904 µM | HCC 2998 < 0.01 µM | SR < 0.01 µM | OVCAR-3 0.0964 µM
